Several values for one entry are separate records, joined by “and”; a condition that tells them apart may be missing. Equal values may be shown once.
Test system: CB2
Assay: CBD bioactivity test (monoclonal antibody test based on CB2 affinity)
Format: binding
Details: CBD samples isolated from ImmunAG
Protocol: All chemicals and solutions were obtained from Sigma-Aldrich (St. Louis, Mo.). All cell cultures were obtained from Creative Bioarray, Shirley, N.Y. CBD bioactivity was measured using practices described in Cushing et al., “Measuring the Bioactivity of Phytocannabinoid Cannabidiol from Cannabis Sources, and a Novel Non-Cannabis Source,” Journal of Medical Phyto.
CBD Samples and Bioactivity Testing. […] Following isolation, bioactivity was measured using procedures outlined in Cushing et al., “Measuring the Bioactivity of Phytocannabinoid Cannabidiol from Cannabis Sources, and a Novel Non-Cannabis Source,” Journal of Medical Phyto.
The bioactivity testing procedure used in this experiment, as described in Cushing et al., “Measuring the Bioactivity of Phytocannabinoid Cannabidiol from Cannabis Sources, and a Novel Non-Cannabis Source,” Journal of Medical Phyto. Research 10 (2018), which is hereby incorporated by reference in its entirety, consisted of a monoclonal antibody test whose validity was based on the CB2 affinity of CBD samples.

Question: With `C=C(C)C1CCC(C)=CC1c1c(O)cc(CCCCC)cc1O` (stereo not drawn) [CBD, 2-(6-isopropenyl-3-methyl-2-cyclohexen-l-yl)-5-pentyl-1,3-benzenediol] as the molecule, how does the Bioactivity read?
Answer: 0.80 and 0.90 and 0.95

Reference: patent publication US20210022305A1, “A HUMULUS PLANT VARIANT AND EXTRACTS THEREOF” (BOMI LLC, priority 2018, published 2021)
